The text below walks through data of patent publication US11021445B2, “Carboxylic acid derivative as AT2R receptor antagonist” (SHANDONG DANHONG PHARMACEUTICAL CO., LTD., priority 2017, dated 2021).

Broadly, the Papp A→B is the apparent permeability from the apical to the basolateral side of a cell layer. The term Papp B→A denotes the apparent permeability from the basolateral to the apical side of a cell layer. Usually efflux ratio stands for a quotient of directional permeabilities that is used to spot active efflux.

The nature of data set [1]: Plasma protein binding rate (PPB) test, equilibrium dialysis. In kind it is in vitro ADME. To be noted: human, 37°C. The method, then: (§1) In vitro protein binding rates of 0.2 μM, 2 μM, 10 μM of test compounds with Sprague-Dawley rats, beagle dogs, human plasma were determined by equilibrium dialysis.
(§2) The experiment will use a 96-well equilibrium dialysis plate (HTDialysis device) to determine the plasma protein binding rate of the to-be-tested compound and the control compounds.
(§3) Prior to the start of the experiment, the dialysis membrane was pretreated according to the instructions for use and the dialysis unit was assembled as required.
(§4) Blank plasma was taken from CD-1 mice, Sprague-Dawley rats, Beagle dogs, cynomolgus monkeys and humans (an anticoagulant is EDTA-K2, which is a commercial product purchased, or is collected and prepared by the Drug Evaluation Department of Wuxi AppTech, and is stored in a refrigerator below −60° C. before use). A certain volume of the to-be-tested compound or the control compound working solution was added to prepare plasma samples of the compound to be tested at a concentration of 0.2, 2, 10 μM and plasma samples of the control compound at a concentration of 2 μM (n=1). The organic phase content was ≤1%. First, a certain volume of a plasma sample containing the to-be-tested compound and the control compound was taken out into the sample receiving plate as a sample at zero time (T0 sample, n=3); secondly, a plasma sample containing the to-be-tested compound and the control compound was added to one side of the dialysis membrane (plasma end, n=3), and a certain volume of dialysis buffer (buffer end, n=3) was added to the other side of the dialysis membrane; then the dialysis plate was placed in a humidified incubator with 5% CO2 for incubation for 4 hours at 37±1° C.
(§5) After the incubation, a certain volume of the dialyzed buffer sample (F sample) and the dialyzed plasma sample (T sample) were transferred to the sample receiving plate, and all samples were subjected to protein precipitation for LC/MS/MS analysis. And the dissociation rate of the compound (% Unbound) was calculated by the following formula: % Unbound=100*[F]/[T], % Bound=100−% Unbound. Wherein, % Unbound is the dissociation rate of the compound; % Bound is the binding rate of the compound; [F] is the concentration of the compound at the buffer end of the dialysis plate; [T] is the concentration of the compound at the plasma end of the dialysis plate; and the experimental results are shown in Table 7.

The nature of data set [2]: Two-way permeability study in Caco-2 cells. In kind it is in vitro ADME. The conditions noted are these: human; for Papp A→B at 120 min: pH 7.4, A-B direction; for Papp B→A at 120 min: pH 7.4, B-A direction; for efflux ratio at 120 min: pH 7.4. As for the experimental part:
The two-way permeability of the to-be-tested compound in Caco-2 cells was measured, and whether the to-be-tested compound was transported by efflux or not was tested.
The compound is dissolved in dimethyl sulfoxide (DMSO) or other suitable solvent to prepare a stock solution of the appropriate concentration.
A suitable internal standard (IS) is dissolved in acetonitrile (ACN) or other organic solvent to be used as a stop solution. The specific information will be described in the research report.
Nadolol, metoprolol, digoxin, estrone 3-sulfate potassium (E3S) and GF120918 were used as a hypotonic control compound, a hypertonic control compound, a P-glycoprotein (P-gp) substrate, a breast cancer resistance protein (BCRP) substrate, and an efflux transporter inhibitor in this study. Stock solutions of these compounds are prepared with DMSO and stored at ≤−30° C., and used within 6 months.
In this study, HBSS (Hanks Balanced Salt Solution) containing 10 mM HEPES (2-[4-(2-hydroxyethyl)-1-piperazine]ethanesulfonic acid) was used as a transport buffer (pH 7.40*0.05).
Caco-2 cells were cultured in an MEM medium (Minimum Essential Media) under the conditions of 37±1° C., 5% CO2 and saturated humidity. The cells were then seeded in a Corning Transwell-96 well plate at a density of 1×10^5 cells/cm^2, and then the cells were placed in a carbon dioxide incubator for culture for 21-28 days for transport experiments. The medium was changed once every 5-6 days during culture.
Compounds were administered at concentrations of 2, 10 and 100 μM and were administered in both directions (A-B and B-A directions) with or without 10 μM GF120918, and there are three parallels for each administration concentration. Digoxin and E3S were tested at the concentration of 10 μM and 5 μM, respectively, and administered bidirectionally with or without 10 μM GF120918. The test concentrations of nadolol and metoprolol were 2 μM, and nadolol and metoprolol were administered unidirectionally (the A-B direction) without 10 μM GF120918. The three control compounds were also made in three parallels.
The administration solution, receiving solution and transport buffer were pre-incubated for 30 minutes at 37° C. The cell layer was rinsed twice with the transport buffer. The administration solution and the receiving solution were separately added to the corresponding cell plate wells (75 μL and 250 μL, respectively, for each of the top and base end wells). After sampling, the cell plates were incubated for 120 minutes in an incubator at 37±1° C., 5% CO2 and saturated humidity.
After all the compounds were subjected to vortex oscillation, the compounds after vortex oscillation were centrifuged at 3220×g, and 20° C. for 20 minutes, the appropriate volume of the supernatant was transferred to a sample analysis plate, and after the plate was sealed, the compounds were stored at 2-8° C. if the compounds were not immediately analyzed. The analysis was carried out by the method of LC/MS/MS, and the specific compound treatment method is shown in the research report.
The Lucifer Yellow Rejection Assay was used to test the integrity of Caco-2 cells. Six cell wells were randomly selected from each cell plate, and 100 μM Lucifer Yellow was added respectively. The Lucifer Yellow Rejection Assay and the transport experiment were performed simultaneously. After 120 minutes of incubation, a Lucifer Yellow sample was taken and the relative fluorescence unit (RFU) of the Lucifer Yellow in the sample was detected at a 425/528 nm (excitation/emission) spectrum.
The concentrations of the to-be-tested compound and the control compounds nadolol, metoprolol, digoxin and E3S in the samples were determined by liquid chromatography-tandem mass spectrometry (LC/MS/MS). The retention time of the analyte and internal standard, chromatogram acquisition and chromatogram integration were processed by using the software Analyst (AB Sciex, Framingham, Mass., USA).
(Caco-2 cells form a polarised layer with tight junctions and transporters.)

A short description of data set [3]: Plasma protein binding rate (PPB) test, equilibrium dialysis. The conditions noted are these: Sprague-Dawley, rat, 37°C, read-out: Plasma Protein Binding (%) SD Rat Plasma (converted). In kind it is in vitro ADME, Sprague-Dawley rats. As for the experimental part:
as §1, §2, §3, §4, §5

Where two headings read alike, the source gives them in different places.

As for `COc1ccc2c(c1OCc1ccccc1)C[C@@H](C(=O)O)N(C(=O)C(c1ccccc1)c1ccccc1)C2` [EMA-401, reference compound], in data set [1], the fraction unbound at 4 h is 0.002. Moreover, in data set [2], the Papp A→B at 120 min came out at 0.11 ×10⁻⁶ cm/s and the Papp B→A at 120 min stood at 6.4 ×10⁻⁶ cm/s. Also, in data set [3], the fraction unbound at 4 h was 0.001.

With `COc1ccc2c(c1OCc1ccccc1)C[C@@H](C(=O)O)N(C(=O)[C@@H](O[C@H]1CC[C@@H](O)CC1)c1ccccc1)C2` [Compound 63], the fraction unbound at 4 h in data set [1] was 0.016; in data set [3], 0.011.

`COc1ccc2c(c1OCc1ccccc1)C[C@@H](C(=O)O)N(C(=O)[C@@H](OC1CCCC1)c1ccccc1)C2` [Compound 37]: the fraction unbound at 4 h in data set [1] was 0.004. In data set [2], the efflux ratio at 120 min stood at 32.5, the Papp A→B at 120 min stood at 0.27 ×10⁻⁶ cm/s and the apparent permeability from basolateral to apical (Papp B→A) at 120 min turned out to be 8.68 ×10⁻⁶ cm/s. In addition, in data set [3], the fraction unbound at 4 h is 0.001.

On to `COc1ccc2c(c1OCc1ccccc1)C[C@@H](C(=O)O)N(C(=O)[C@@H](OC1CC(F)(F)C1)c1ccccc1)C2` [Compound 51], for which the fraction unbound at 4 h in data set [1] is 0.007; in data set [3], 0.055.

On to `O=C(O)[C@@H]1Cc2c(ccc(Cl)c2OCc2ccccc2)CN1C(=O)[C@@H](OC1CCCC1)c1ccccc1` [Compound 107], for which, in data set [2], the efflux ratio at 120 min came out at 13.1, the Papp A→B at 120 min was 0.48 ×10⁻⁶ cm/s and the apparent permeability from basolateral to apical (Papp B→A) at 120 min is 6.24 ×10⁻⁶ cm/s.

The molecule `COc1ccc2c(c1OCc1ccccc1)C[C@@H](C(=O)O)N(C(=O)[C@@H](OC1(C)CCCC1)c1ccccc1)C2` [Compound 57] showed a fraction unbound at 4 h in data set [1] of 0.005. For the same molecule, in data set [2], the efflux ratio at 120 min amounted to 26.3, the apparent permeability from apical to basolateral (Papp A→B) at 120 min was 0.67 ×10⁻⁶ cm/s and the Papp B→A at 120 min is 17.7 ×10⁻⁶ cm/s. The fraction unbound at 4 h in data set [3] is 0.002.
